Reference: article PMC6651548, “Synthesis and AChE Inhibitory Activity of Novel Thiazolylhydrazone Derivatives” (Molecules, 2019)

Legend:
hMAO-A = biological target: T1, hMAO-A (Homo sapiens, UniProt P21397); assay: Monoamine oxidase fluorometric inhibition assay, MAO-A; format: biochemical; settings: for inhibition at 1000 µM: 10^−3 M; for inhibition at 100 µM: 10^−4 M
T1 construct: purchased Sigma-Aldrich (Steinheim, Germany)
T1 sequence (P21397 1-527): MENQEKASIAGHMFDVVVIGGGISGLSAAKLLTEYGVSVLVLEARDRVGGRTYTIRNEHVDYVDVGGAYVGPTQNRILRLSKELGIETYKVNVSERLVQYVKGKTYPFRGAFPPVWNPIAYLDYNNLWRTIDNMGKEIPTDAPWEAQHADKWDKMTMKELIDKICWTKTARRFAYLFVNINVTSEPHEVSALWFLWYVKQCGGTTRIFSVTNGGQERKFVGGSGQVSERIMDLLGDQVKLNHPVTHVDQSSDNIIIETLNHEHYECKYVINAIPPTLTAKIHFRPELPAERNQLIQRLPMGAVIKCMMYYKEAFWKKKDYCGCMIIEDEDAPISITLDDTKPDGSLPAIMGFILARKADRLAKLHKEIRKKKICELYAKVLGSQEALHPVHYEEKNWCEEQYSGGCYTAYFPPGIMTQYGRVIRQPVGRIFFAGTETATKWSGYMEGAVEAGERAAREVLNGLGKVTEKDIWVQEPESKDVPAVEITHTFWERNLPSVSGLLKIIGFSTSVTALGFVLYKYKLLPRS
Protocol: In order to investigate the monoamine oxidase enzyme inhibitory effects of synthesized compounds, MAO-A and MAO-B enzyme activities were performed by using a fluorometric inhibition method. Moclobemide and selegiline were used as standard drugs for MAO-A and MAO-B enzymes, respectively. Test compounds and standard drugs were used in the same concentrations as in AChE and BChE enzyme activity assays. In Table 2, MAO enzyme inhibitory results are given. […]. To investigate the MAO-A and MAO-B enzyme inhibition profiles of the synthesized compounds, the fluorometric enzyme inhibition assay was carried out, as previously defined by us. Ampliflu™ Red (10-Acetyl-3,7-dihydroxyphenoxazine) was used as a fluorescence reagent in this assay.

hMAO-B = biological target: T2, hMAO-B (Homo sapiens, UniProt P27338); assay: biochemical; settings: read-out: MAO-B % Inhibition; for inhibition at 1000 µM: 10^−3 M; for inhibition at 100 µM: 10^−4 M
T2 construct: purchased Sigma-Aldrich (Steinheim, Germany)
T2 sequence (P27338 1-520): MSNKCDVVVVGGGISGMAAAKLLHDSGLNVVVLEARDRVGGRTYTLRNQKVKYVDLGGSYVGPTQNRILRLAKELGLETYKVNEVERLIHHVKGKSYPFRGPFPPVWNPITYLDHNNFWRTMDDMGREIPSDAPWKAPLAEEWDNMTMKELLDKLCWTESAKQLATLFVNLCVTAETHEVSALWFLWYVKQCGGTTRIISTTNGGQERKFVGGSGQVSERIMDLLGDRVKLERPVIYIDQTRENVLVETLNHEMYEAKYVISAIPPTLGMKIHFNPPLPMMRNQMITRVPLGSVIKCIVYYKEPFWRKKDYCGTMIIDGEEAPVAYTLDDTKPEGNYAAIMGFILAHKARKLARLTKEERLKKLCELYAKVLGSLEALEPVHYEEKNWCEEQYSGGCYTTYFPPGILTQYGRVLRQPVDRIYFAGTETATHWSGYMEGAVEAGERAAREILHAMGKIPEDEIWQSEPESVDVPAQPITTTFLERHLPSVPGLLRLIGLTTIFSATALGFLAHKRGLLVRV
Protocol: Test compounds and standard drugs were used in the same concentrations as in AChE and BChE enzyme activity assays. […] To investigate the MAO-A and MAO-B enzyme inhibition profiles of the synthesized compounds, the fluorometric enzyme inhibition assay was carried out, as previously defined by us. Ampliflu™ Red (10-Acetyl-3,7-dihydroxyphenoxazine) was used as a fluorescence reagent in this assay.

AChE = AChE (Homo sapiens, UniProt P22303); assay: biochemical; settings: for inhibition at 1000 µM: 10^−3 M; for inhibition at 100 µM: 10^−4 M
BChE = BChE (Homo sapiens, UniProt P06276); assay: Anticholinesterase activity assay (modified Ellman method), BChE; format: biochemical; settings: for inhibition at 1000 µM: 10^−3 M; for inhibition at 100 µM: 10^−4 M
Protocol: . Initially, all the obtained compounds were tested at 10^−3 M and 10^−4 M concentrations and the ChE inhibitory results are outlined in Table 1. […]. Compounds 3a, 3c and 3i indicated more than 50% activity at the 10^−4 M concentration. […]. […] According to the results of activity tests, some general results can be listed as follows. The compounds 3a, 3c and 3i contain the non-substituted, methoxy and trifluoromethyl substituents on the phenyl ring, respectively. […]
The inhibitory capacity of the obtained compounds on AChE and BChE biological activities was assessed using a modified Ellman’s spectrometric method, as described in our previous studies. Donepezil were used as a reference drug. All pipetting procedures in the enzyme inhibition assay were carried out via a robotics system, Biotek Precision XS (Winooski, VT, USA). A BioTek-Synergy H1 microplate reader (Winooski, VT, USA) was used to carry out measurements of percent inhibition at 412 nm, and the IC50 values of the selected compounds were performed as previously described.

Sequence of BChE (P06276 29-602): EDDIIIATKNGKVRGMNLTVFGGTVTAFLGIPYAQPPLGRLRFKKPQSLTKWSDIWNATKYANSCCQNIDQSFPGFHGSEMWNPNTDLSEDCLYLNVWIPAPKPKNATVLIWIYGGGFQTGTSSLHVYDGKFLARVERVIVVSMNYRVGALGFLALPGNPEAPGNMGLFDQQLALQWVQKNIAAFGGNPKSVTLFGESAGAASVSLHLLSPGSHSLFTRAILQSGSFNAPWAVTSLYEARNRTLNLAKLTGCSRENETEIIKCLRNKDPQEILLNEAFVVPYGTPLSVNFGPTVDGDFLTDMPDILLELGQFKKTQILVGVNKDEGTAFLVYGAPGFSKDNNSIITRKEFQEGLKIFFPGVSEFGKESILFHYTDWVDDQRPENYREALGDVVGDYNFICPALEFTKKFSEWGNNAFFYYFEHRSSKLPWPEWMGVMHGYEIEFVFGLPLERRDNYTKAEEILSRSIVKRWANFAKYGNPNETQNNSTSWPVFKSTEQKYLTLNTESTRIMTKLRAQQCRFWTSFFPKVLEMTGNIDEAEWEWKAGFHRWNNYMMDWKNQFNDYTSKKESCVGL
Sequence of AChE (P22303 32-614): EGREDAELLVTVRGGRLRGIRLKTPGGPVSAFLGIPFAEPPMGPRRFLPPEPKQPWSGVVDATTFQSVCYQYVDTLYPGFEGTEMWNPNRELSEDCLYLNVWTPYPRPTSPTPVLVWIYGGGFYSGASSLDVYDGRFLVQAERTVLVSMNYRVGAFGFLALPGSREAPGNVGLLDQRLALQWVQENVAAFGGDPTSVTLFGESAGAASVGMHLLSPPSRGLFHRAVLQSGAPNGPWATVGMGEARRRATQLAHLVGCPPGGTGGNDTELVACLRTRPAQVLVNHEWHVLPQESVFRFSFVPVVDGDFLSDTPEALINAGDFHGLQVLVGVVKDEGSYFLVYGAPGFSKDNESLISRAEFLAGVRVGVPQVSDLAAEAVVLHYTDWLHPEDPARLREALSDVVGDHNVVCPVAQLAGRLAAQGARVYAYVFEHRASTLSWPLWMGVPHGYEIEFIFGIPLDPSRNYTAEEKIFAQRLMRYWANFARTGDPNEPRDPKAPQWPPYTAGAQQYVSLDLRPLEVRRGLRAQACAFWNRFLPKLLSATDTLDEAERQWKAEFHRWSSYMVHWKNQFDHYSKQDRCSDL

`Fc1ccc(N2CCN(c3ccc(C=NNc4nc(-c5ccc(Cl)cc5)cs4)cc3)CC2)cc1` [Compound 3g, 4-(4-chlorophenyl)-2-(2-(4-(4-(4-fluorophenyl)piperazin-1-yl)benzylidene)hydrazineyl)thiazole] showed an inhibition at 1000 µM (hMAO-A) of 48.2 ± 0.97%, an inhibition at 100 µM (hMAO-A) of 30.2 ± 0.5% and an inhibition at 1000 µM (hMAO-B) of 68.1 ± 1.12%. For the same compound, the inhibition at 100 µM (hMAO-B) was 41.8 ± 0.86%, the inhibition at 1000 µM (AChE) was 64.5 ± 0.67% and the inhibition at 100 µM (AChE) was 37.8 ± 0.6%. For the same compound, the inhibition at 1000 µM (BChE) was 38.54 ± 0.35% and the inhibition at 100 µM (BChE) was 20.2 ± 0.35%.
In the case of `Fc1ccc(N2CCN(c3ccc(C=NNc4nc(-c5ccc(Br)cc5)cs4)cc3)CC2)cc1` [Compound 3h, 4-(4-bromophenyl)-2-(2-(4-(4-(4-fluorophenyl)piperazin-1-yl)benzylidene)hydrazineyl)thiazole], the inhibition at 1000 µM (hMAO-A) is reported as 34.2 ± 0.58%, the inhibition at 100 µM (hMAO-A) is reported as 22.2 ± 0.47% and the inhibition at 1000 µM (hMAO-B) is reported as 68.9 ± 1.25%. For the same compound, the inhibition at 100 µM (hMAO-B) was 39.1 ± 0.63%, the inhibition at 1000 µM (AChE) was 75.3 ± 1.06% and the inhibition at 100 µM (AChE) was 47.1 ± 0.74%. The inhibition at 1000 µM (BChE) was 40.6 ± 0.68% and the inhibition at 100 µM (BChE) was 35.5 ± 0.41%.
`Fc1ccc(N2CCN(c3ccc(C=NNc4nc(-c5ccc(C(F)(F)F)cc5)cs4)cc3)CC2)cc1` [Compound 3i, 2-(2-(4-(4-(4-fluorophenyl)piperazin-1-yl)benzylidene)hydrazineyl)-4-(4-(trifluoromethyl)phenyl)thiazole] showed an inhibition at 1000 µM (hMAO-A) of 38.2 ± 0.78%, an inhibition at 100 µM (hMAO-A) of 22.8 ± 0.54% and an inhibition at 1000 µM (hMAO-B) of 59.1 ± 0.77%. It also gave an inhibition at 100 µM (hMAO-B) of 40.2 ± 0.58%, an inhibition at 1000 µM (AChE) of 80.7 ± 1.02% and an IC50 (AChE; 10^−3–10^−9 M concentrations) of 216 ± 10 nM. The inhibition at 100 µM (AChE) was > 50%, the inhibition at 1000 µM (BChE) was 45.4 ± 0.52% and the inhibition at 100 µM (BChE) was 35.4 ± 0.39%.
`Cc1ccc(-c2csc(NN=Cc3ccc(N4CCN(c5ccc(F)cc5)CC4)cc3)n2)c(C)c1` [Compound 3j, 4-(2,4-dimethylphenyl)-2-(2-(4-(4-(4-fluorophenyl)piperazin-1-yl)benzylidene)hydrazineyl)thiazole] showed an inhibition at 1000 µM (hMAO-A) of 48.2 ± 0.88%, an inhibition at 100 µM (hMAO-A) of 40.2 ± 0.52% and an inhibition at 1000 µM (hMAO-B) of 69.2 ± 1.2%. The inhibition at 100 µM (hMAO-B) was 40.8 ± 0.92%, the inhibition at 1000 µM (AChE) was 53.8 ± 0.62% and the inhibition at 100 µM (AChE) was 26.9 ± 0.55%. For the same compound, the inhibition at 1000 µM (BChE) was 31.9 ± 0.47% and the inhibition at 100 µM (BChE) was 25.7 ± 0.49%.
`Fc1ccc(N2CCN(c3ccc(C=NNc4nc(-c5ccc(Cl)cc5Cl)cs4)cc3)CC2)cc1` [Compound 3k, 4-(2,4-dichlorophenyl)-2-(2-(4-(4-(4-fluorophenyl)piperazin-1-yl)benzylidene)hydrazineyl)thiazole] gave an inhibition at 1000 µM (hMAO-A) of 35.2 ± 0.48%, an inhibition at 100 µM (hMAO-A) of 19.1 ± 0.4% and an inhibition at 1000 µM (hMAO-B) of 55.1 ± 0.92%. It also gave an inhibition at 100 µM (hMAO-B) of 34.2 ± 0.81%, an inhibition at 1000 µM (AChE) of 35.7 ± 0.57% and an inhibition at 100 µM (AChE) of 20.4 ± 0.3%. For the same compound, the inhibition at 1000 µM (BChE) was 28.59 ± 0.25% and the inhibition at 100 µM (BChE) was 21 ± 0.61%.
Compound `O=C(NCCN1CCOCC1)c1ccc(Cl)cc1` [Moclobemide, reference compound] has an inhibition at 1000 µM (hMAO-A) of 91.2 ± 2.8% and an inhibition at 100 µM (hMAO-A) of 78.2 ± 2.55%.
